Where a name gives a salt, the structure may show the parent alone. Read-outs that look alike come from different tables or passages of the source.
Experiments:
estrogen receptor (ER) = conditions: cited from earlier work; for AUC score in Judson 2015: ER antagonist, ToxCast chemicals only, ref Judson 2015; for ER antagonist AUC score: pathway-level model using all Tox21/ToxCast ER assays of 1812 ToxCast chemicals
[1] = tested on: HEK293 and HepG2 cell lines
HEK293 cells [2] = conditions: HEK293 flor
HEK293 cells [3] = conditions: HEK293 glo
HepG2 cells [4] = conditions: HepG2 glo
HepG2 cells [5] = assay: CellTox Green Cytotoxicity Assay (flor) in HepG2, HepG2[flor]; assay type: cell-based, human; conditions: HepG2 flor;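 on hepg2 flor emax 0: percent activity versus DMSO-only wells with baseline rescaled to 0%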;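 on hepg2 flor emax 40: percent activity versus DMSO-only wells with baseline rescaled to 0%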
[6] = POD potency, max over real-time cytotoxicity assays
[7] = POD potency, median over real-time cytotoxicity assays
[8] = time point 16, given as negative log-scale values
[9] = time point 24, given as negative log-scale values
[10] = time point 32, given as negative log-scale values
[11] = time point 40, given as negative log-scale values
[12] = time point 8, given as negative log-scale values

CN[C@H]1CC[C@@H](c2ccc(Cl)c(Cl)c2)c2ccc(S(N)(=O)=O)cc21 [UK-373911]
AUC score in Judson 2015 (estrogen receptor (ER)): 6.68e-8
Cyto(realtime)_max [1, 6]: 5.12 log10(M)*-1
Cyto(realtime)_median [1, 7]: 4.70 log10(M)*-1

O=C(c1ccc(OCCN2CCCCC2)cc1)c1c(-c2ccc(O)cc2)sc2cc(O)ccc12 [Raloxifene hydrochloride]
AUC score in Judson 2015 (estrogen receptor (ER)): 0.671

O=C1C2CC=CCC2C(=O)N1SC(Cl)(Cl)Cl (stereo not shown) [Captan]
AUC score in Judson 2015 (estrogen receptor (ER)): 0

OC(c1ccc(Cl)cc1)(c1cncnc1)c1ccccc1Cl (stereo not shown) [Fenarimol]
AUC score in Judson 2015 (estrogen receptor (ER)): 0.000907

Clc1ccccc1C(c1ccccc1)(c1ccccc1)n1ccnc1 [Clotrimazole, reference compound]
AUC score in Judson 2015 (estrogen receptor (ER)): 0.00844

CCCCNC(=O)OCC#CI [3-Iodo-2-propynyl-N-butylcarbamate]
AUC score in Judson 2015 (estrogen receptor (ER)): 0.0283
Cyto(realtime)_max [1, 6]: 5.74 log10(M)*-1
Cyto(realtime)_median [1, 7]: 4.62 log10(M)*-1

Dodecylphenol
AUC score in Judson 2015 (estrogen receptor (ER)): 0
Cyto(realtime)_max [1, 6]: 5.05 log10(M)*-1
Cyto(realtime)_median [1, 7]: 4.56 log10(M)*-1

CCCCC(O)(Cn1cncn1)c1ccc(Cl)cc1Cl (stereo not shown) [Hexaconazole]
AUC score in Judson 2015 (estrogen receptor (ER)): 0.00822

CC(C)(C)c1cc(/C=C2\SC(N)=NC2=O)cc(C(C)(C)C)c1O [Darbufelone mesylate]
AUC score in Judson 2015 (estrogen receptor (ER)): 0

CCCCCCCCOC(=O)c1cc(O)c(O)c(O)c1 [octyl gallate]
AUC score in Judson 2015 (estrogen receptor (ER)): 0.0768
ER antagonist AUC score (estrogen receptor (ER)): higher than 0.01

CCC(C)(C)c1ccc(O)c(C(C)(C)CC)c1 [2,4-Bis(2-methylbutan-2-yl)phenol]
AUC score in Judson 2015 (estrogen receptor (ER)): 0.00113

CC/C(=C(\c1ccccc1)c1ccc(OCCN(C)C)cc1)c1ccccc1 [Tamoxifen]
AUC score in Judson 2015 (estrogen receptor (ER)): 0.447
Cyto(realtime)_median [1, 7]: 4.64 log10(M)*-1

C[C@@]1(c2ccc(Oc3ccccc3)cc2)OC(=O)N(Nc2ccccc2)C1=O (racemic) [Famoxadone]
AUC score in Judson 2015 (estrogen receptor (ER)): 0.000714

CC(C)c1cccc(C(C)C)c1N1C(=O)c2ccc(O)cc2C1=O [5HPP-33]
AUC score in Judson 2015 (estrogen receptor (ER)): 0
Cyto(realtime)_max [1, 6]: 4.71 log10(M)*-1
Cyto(realtime)_median [1, 7]: 4.30 log10(M)*-1

CC(C)(C)c1ccc(O)c(C(C)(C)C)c1 [2,4-Di-tert-butylphenol]
AUC score in Judson 2015 (estrogen receptor (ER)): 0

CN(C)c1ccc(C(=C2C=CC(=[N+](C)C)C=C2)c2ccccc2)cc1.CN(C)c1ccc(C(=C2C=CC(=[N+](C)C)C=C2)c2ccccc2)cc1.O=C(O)C(=O)O.O=C([O-])C(=O)O.O=C([O-])C(=O)O [Malachite green oxalate]
hek293_flor_auc (HEK293 cells [2]): 1.491
hek293_flor_time (HEK293 cells [2]): 24
hek293_flor_bin (HEK293 cells [2]; kinetics bin): cv_46 (cv_46: 24 < time < 32)
hek293_flor_emax_0 (HEK293 cells [2]; time point 0): 0
hek293_flor_pod_0 (HEK293 cells [2]; time point 0): -4.417
hek293_flor_wauc_0 (HEK293 cells [2]; time point 0): 0
hek293_flor_emax_8 (HEK293 cells [2]; time point 8): 0
hek293_flor_pod_8 (HEK293 cells [2]; time point 8): -4.417
hek293_flor_wauc_8 (HEK293 cells [2]; time point 8): 0
hek293_flor_emax_16 (HEK293 cells [2]; time point 16): 25.2441
hek293_flor_pod_16 (HEK293 cells [2]; time point 16): -4.42
hek293_flor_wauc_16 (HEK293 cells [2]; time point 16): 0.5325
hek293_flor_ec50_16 (HEK293 cells [2]; [8]): -4.591
hek293_flor_emax_24 (HEK293 cells [2]; time point 24): 72.6532
hek293_flor_pod_24 (HEK293 cells [2]; time point 24): -4.806
hek293_flor_wauc_24 (HEK293 cells [2]; time point 24): 1.057
hek293_flor_ec50_24 (HEK293 cells [2]; [9]): -4.702
hek293_flor_emax_32 (HEK293 cells [2]; time point 32): 99.3082
hek293_flor_pod_32 (HEK293 cells [2]; time point 32): -5.521
hek293_flor_wauc_32 (HEK293 cells [2]; time point 32): 1.407
hek293_flor_ec50_32 (HEK293 cells [2]; [10]): -4.895
hek293_flor_emax_40 (HEK293 cells [2]; time point 40): 135.684
hek293_flor_pod_40 (HEK293 cells [2]; time point 40): -5.642
hek293_flor_wauc_40 (HEK293 cells [2]; time point 40): 1.5
hek293_flor_ec50_40 (HEK293 cells [2]; [11]): -5.028
hek293_glo_auc (HEK293 cells [3]): 1.897
hek293_glo_time (HEK293 cells [3]): 8
hek293_glo_bin (HEK293 cells [3]; kinetics bin): cv_26 (cv_26: 8 < time < 16)
hek293_glo_emax_0 (HEK293 cells [3]; time point 0): 0
hek293_glo_pod_0 (HEK293 cells [3]; time point 0): -4.417
hek293_glo_wauc_0 (HEK293 cells [3]; time point 0): 0
hek293_glo_emax_8 (HEK293 cells [3]; time point 8): -47.964
hek293_glo_pod_8 (HEK293 cells [3]; time point 8): -5.267
hek293_glo_wauc_8 (HEK293 cells [3]; time point 8): 1.621
hek293_glo_ec50_8 (HEK293 cells [3]; [12]): -5.275
hek293_glo_emax_16 (HEK293 cells [3]; time point 16): -74.3913
hek293_glo_pod_16 (HEK293 cells [3]; time point 16): -6.896
hek293_glo_wauc_16 (HEK293 cells [3]; time point 16): 2.239
hek293_glo_ec50_16 (HEK293 cells [3]; [8]): -5.71
hek293_glo_emax_24 (HEK293 cells [3]; time point 24): -84.5759
hek293_glo_pod_24 (HEK293 cells [3]; time point 24): -6.8943
hek293_glo_wauc_24 (HEK293 cells [3]; time point 24): 2.321
hek293_glo_ec50_24 (HEK293 cells [3]; [9]): -6.073
hek293_glo_emax_32 (HEK293 cells [3]; time point 32): -91.2313
hek293_glo_pod_32 (HEK293 cells [3]; time point 32): -6.927
hek293_glo_wauc_32 (HEK293 cells [3]; time point 32): 2.36
hek293_glo_ec50_32 (HEK293 cells [3]; [10]): -6.025
hek293_glo_emax_40 (HEK293 cells [3]; time point 40): -94.0423
hek293_glo_pod_40 (HEK293 cells [3]; time point 40): -6.941
hek293_glo_wauc_40 (HEK293 cells [3]; time point 40): 2.382
hek293_glo_ec50_40 (HEK293 cells [3]; [11]): -6.071
hepg2_glo_auc (HepG2 cells [4]): 1.838
hepg2_glo_time (HepG2 cells [4]): 0
hepg2_glo_bin (HepG2 cells [4]; kinetics bin): cv_16 (cv_16: 0 < time < 8)
hepg2_glo_emax_0 (HepG2 cells [4]; time point 0): 0
hepg2_glo_pod_0 (HepG2 cells [4]; time point 0): -4.417
hepg2_glo_wauc_0 (HepG2 cells [4]; time point 0): 0
hepg2_glo_emax_8 (HepG2 cells [4]; time point 8): -63.2822
hepg2_glo_pod_8 (HepG2 cells [4]; time point 8): -5.131
hepg2_glo_wauc_8 (HepG2 cells [4]; time point 8): 1.514
hepg2_glo_ec50_8 (HepG2 cells [4]; [12]): -4.735
hepg2_glo_emax_16 (HepG2 cells [4]; time point 16): -91.4856
hepg2_glo_pod_16 (HepG2 cells [4]; time point 16): -5.607
hepg2_glo_wauc_16 (HepG2 cells [4]; time point 16): 1.892
hepg2_glo_ec50_16 (HepG2 cells [4]; [8]): -5.318
hepg2_glo_emax_24 (HepG2 cells [4]; time point 24): -91.3465
hepg2_glo_pod_24 (HepG2 cells [4]; time point 24): -5.6539
hepg2_glo_wauc_24 (HepG2 cells [4]; time point 24): 1.966
hepg2_glo_ec50_24 (HepG2 cells [4]; [9]): -5.521
hepg2_glo_emax_32 (HepG2 cells [4]; time point 32): -92.3669
hepg2_glo_pod_32 (HepG2 cells [4]; time point 32): -5.816
hepg2_glo_wauc_32 (HepG2 cells [4]; time point 32): 2.064
hepg2_glo_ec50_32 (HepG2 cells [4]; [10]): -5.627
hepg2_glo_emax_40 (HepG2 cells [4]; time point 40): -91.0249
hepg2_glo_pod_40 (HepG2 cells [4]; time point 40): -5.846
hepg2_glo_wauc_40 (HepG2 cells [4]; time point 40): 2.087
hepg2_glo_ec50_40 (HepG2 cells [4]; [11]): -5.656
information ([1]; any activity in any time point/assay): 1
hepg2_flor_auc (HepG2 cells [5]): 1.813
hepg2_flor_time (HepG2 cells [5]): 8
hepg2_flor_bin (HepG2 cells [5]; kinetics bin): cv_26 (cv_26: 8 < time < 16)
hepg2_flor_emax_0 (HepG2 cells [5]; time point 0): 0
hepg2_flor_pod_0 (HepG2 cells [5]; time point 0): -4.417
hepg2_flor_wauc_0 (HepG2 cells [5]; time point 0): 0
hepg2_flor_emax_8 (HepG2 cells [5]; time point 8): 44.8674
hepg2_flor_pod_8 (HepG2 cells [5]; time point 8): -4.571
hepg2_flor_wauc_8 (HepG2 cells [5]; time point 8): 0.868
hepg2_flor_ec50_8 (HepG2 cells [5]; [12]): -4.591
hepg2_flor_emax_16 (HepG2 cells [5]; time point 16): 142.047
hepg2_flor_pod_16 (HepG2 cells [5]; time point 16): -5.554
hepg2_flor_wauc_16 (HepG2 cells [5]; time point 16): 1.871
hepg2_flor_ec50_16 (HepG2 cells [5]; [8]): -4.76
hepg2_flor_emax_24 (HepG2 cells [5]; time point 24): 168.072
hepg2_flor_pod_24 (HepG2 cells [5]; time point 24): -5.707
hepg2_flor_wauc_24 (HepG2 cells [5]; time point 24): 2.035
hepg2_flor_ec50_24 (HepG2 cells [5]; [9]): -5.438
hepg2_flor_emax_32 (HepG2 cells [5]; time point 32): 231.16
hepg2_flor_pod_32 (HepG2 cells [5]; time point 32): -5.746
hepg2_flor_wauc_32 (HepG2 cells [5]; time point 32): 2.119
hepg2_flor_ec50_32 (HepG2 cells [5]; [10]): -5.498
hepg2_flor_emax_40 (HepG2 cells [5]; time point 40): 275.23
hepg2_flor_pod_40 (HepG2 cells [5]; time point 40): -6.016
hepg2_flor_wauc_40 (HepG2 cells [5]; time point 40): 2.222
hepg2_flor_ec50_40 (HepG2 cells [5]; [11]): -5.565

CC(C)C1CCC(Cc2ccc(Cl)cc2)C1(O)Cn1cncn1 (stereo not shown) [Ipconazole]
AUC score in Judson 2015 (estrogen receptor (ER)): 0.0166

CC[C@H](c1ccc(O)cc1)[C@@H](CC)c1ccc(O)cc1 [meso-Hexestrol]
AUC score in Judson 2015 (estrogen receptor (ER)): 0

CCCCCCCCCCCCOC(=O)c1cc(O)c(O)c(O)c1 [dodecyl gallate]
AUC score in Judson 2015 (estrogen receptor (ER)): 0.0773
ER antagonist AUC score (estrogen receptor (ER)): higher than 0.01

CC/C(=C(\c1ccccc1)c1ccc(OCCN(C)C)cc1)c1ccccc1 [Tamoxifen citrate]
AUC score in Judson 2015 (estrogen receptor (ER)): 0.546

tetrabutyltin
AUC score in Judson 2015 (estrogen receptor (ER)): 0.0101
ER antagonist AUC score (estrogen receptor (ER)): higher than 0.01
Cyto(realtime)_max [1]: 5.64 log10(M)*-1
Cyto(realtime)_median [1]: 5.16 log10(M)*-1

CC/C(=C(\c1ccc(O)cc1)c1ccc(OCCN(C)C)cc1)c1ccccc1 [4-Hydroxytamoxifen]
AUC score in Judson 2015 (estrogen receptor (ER)): 0.686

From paper PMC5439695 (PLoS ONE, 2017)
